Laboratory results published in PubChem BioAssay AID2127 (Sanford-Burnham Center for Chemical Genomics, 2009).
Calls of active or inactive are those of the source.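 How the source made its calls: active means half-maximal inhibitory concentration below a set limit; inactive means the rest.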

Biological target: E3 ubiquitin-protein ligase SIAH1 (Homo sapiens) (UniProt Q8IUQ4)
Assay: displacement of labeled plectin from Siah-1 – biochemical, fluorescence polarization, fluorescein-plectin, artefact control for Siah-1 antagonist project, dose response (AID 2127)
Details: Siah-1/fluorescein-plectin binding

| Structure (SMILES) | IC50 |
| --- | --- |
| C=C(C)Cn1c(N2CCN(CC)CC2)nc2c1c(=O)[nH]c(=O)n2C | > 200 µM (inactive) |
| O=C(Cn1cnc2scc(-c3ccccc3)c2c1=O)NCc1ccco1 | > 200 µM (inactive) |
| COCCCNc1c2c3c(cccc3[nH]c1=O)C(=O)c1ccccc1-2 | > 200 µM (inactive) |
| CCOC(=O)C1=C(C)N=c2s/c(=C\c3ccc(OCC(=O)O)cc3)c(=O)n2C1c1ccc(Cl)cc1 (centres undefined) | > 200 µM (inactive) |
| CCCCn1c(NS(=O)(=O)c2ccc(C)cc2)c(S(=O)(=O)c2ccccc2)c2nc3ccccc3nc21 | > 200 µM (inactive) |
| COC(=O)C1CC(=O)N(c2ccc(OCc3ccccc3Cl)cc2)C1 (centres undefined) | > 200 µM (inactive) |
| CN(C)c1cccc2c(C=C(C#N)C#N)ccc(N(C)C)c12 | > 200 µM (inactive) |
| CC(=O)Nc1ccc(N=Cc2c(O)c(C(=O)Nc3ccccc3)cc3ccccc23)cc1 | 4.98 µM |
| O=c1[nH]c2ccc(S(=O)(=O)N3CCCCC3)cc2s1 | > 200 µM (inactive) |
| COc1cc(CNc2ccc(O)cc2)cc(Br)c1OCc1ccccc1F | > 200 µM (inactive) |
| CC[n+]1c(/C=C/N(C)c2ccccc2)sc2ccc(Cl)cc21 | > 200 µM (inactive) |
| CCN(CC)c1ccc(/C=c2\sc3nnc(-c4ccccc4Cl)n3c2=O)cc1 | > 200 µM (inactive) |
| Cc1cc(C)n(-c2ccc(Cl)c(C(=O)Nc3cc(C(F)(F)F)ccc3Cl)n2)n1 | > 200 µM (inactive) |
| CN1C(=O)NC(c2ccccc2[N+](=O)[O-])C2=C1CCCC2=O (centres undefined) | 5.41 µM |
| O=C(Nc1cc([N+](=O)[O-])ccc1N1CCOCC1)c1cccs1 | > 200 µM (inactive) |
| S=c1[nH]nc(Cc2cccc3ccccc23)n1-c1ccccc1 | > 200 µM (inactive) |
| O=c1[nH]n(-c2ccc([N+](=O)[O-])cc2)c(=O)c2ccccc12 | > 200 µM (inactive) |
| Cc1ccccc1NC(=O)CN1C(=O)N/C(=C\c2ccccc2OCc2ccc(C(=O)O)cc2)C1=O | > 200 µM (inactive) |
| CC12CCC(C(=O)NCc3ccc(Cl)cc3)(OC1=O)C2(C)C (centres undefined) | > 200 µM (inactive) |
| CCCCn1c(NS(=O)(=O)c2ccccc2)c(S(=O)(=O)c2ccc(C)cc2)c2nc3ccccc3nc21 | > 200 µM (inactive) |
| CCCCn1c(NC(=O)c2ccco2)c(S(=O)(=O)c2ccc(C)cc2)c2nc3ccccc3nc21 | > 200 µM (inactive) |
| Cc1c(C(=O)O)sc2nc(CSc3ncc(C(F)(F)F)cc3Cl)[nH]c(=O)c12 | > 200 µM (inactive) |
| O=C(NCc1ccc(Cl)cc1)c1cc(-c2cccs2)on1 | > 200 µM (inactive) |
| Cc1ccc(OCCCN2CCOCC2)cc1 | > 200 µM (inactive) |

| Structure (SMILES) | IC50 |
| --- | --- |
| CC1CCN(C(=O)C2CCC(C)(C(=O)O)C2(C)C)CC1 (centres undefined) | > 200 µM (inactive) |
| CSc1n[nH]c(NCc2ccc(Cl)cc2)n1 | > 200 µM (inactive) |
| O=C(CCN1CCN(Cc2ccccc2)CC1)Nc1cccc(Cl)c1 | > 200 µM (inactive) |
| CCCCNc1c2c3c(cccc3n(C)c1=O)C(=O)c1ccccc1-2 | > 200 µM (inactive) |
| CCC(C)[C@H](NC(=O)N1CCn2c1nc1ccccc12)C(=O)NCCc1ccc(OC)c(OC)c1 (some centres undefined) | > 200 µM (inactive) |
| COc1cc(CC(=O)NCc2ccc3c(c2)OCO3)cc(OC)c1OC | > 200 µM (inactive) |
| N#C/C(=C\c1c(F)cccc1Cl)C(=O)NC1CC1 | > 200 µM (inactive) |
| O=S(=O)(O)c1cc(O)c2c(O)c(N=Nc3cc(Cl)ccc3O)c(S(=O)(=O)O)cc2c1 | > 200 µM (inactive) |
| Cc1ccc(NC(=O)CCC(=O)NNC(=O)c2ccccc2[N+](=O)[O-])c(C)c1 | > 200 µM (inactive) |
| Nc1c(C(=O)NCc2ccco2)c2nc3ccccc3nc2n1CCc1ccccc1 | > 200 µM (inactive) |
| CN(C)CCOC(=O)CCc1ccccc1 | > 200 µM (inactive) |
| COc1cc(/C=C(\C#N)c2nc3ccccc3[nH]2)ccc1OC(=O)c1ccco1 | > 200 µM (inactive) |
| CC(=O)c1ccc(S(=O)(=O)Nc2ccc(-c3ccc4nnc(C)n4n3)cc2)cc1 | > 200 µM (inactive) |
| O=C(Nc1ccc(Cl)cc1)OCc1cn(-c2ccccc2)nn1 | > 200 µM (inactive) |
| CN(Cc1c(C(=O)N/N=C/c2ccc(F)cc2)nnn1-c1nonc1N)C1CCCCC1 | > 200 µM (inactive) |
| c1ccc(C(c2ccccc2)N2CCN(C(c3ccccn3)c3nnnn3C3CCCC3)CC2)cc1 (centres undefined) | > 200 µM (inactive) |
| O=C(CSc1ccc(Br)c2cccc(Cl)c12)Nc1ccc(S(=O)(=O)Nc2nccs2)cc1 | > 200 µM (inactive) |
| CC(=O)c1ccc(NC(=O)CC2Nc3cccc4cccc(c34)NC2=O)cc1 (centres undefined) | > 200 µM (inactive) |
| O=C(Nc1ccccc1N1CCCCC1)c1ccc(-c2cccc(Cl)c2)o1 | > 200 µM (inactive) |
| Cc1coc2c(C)c3oc(=O)c(CCC(=O)N[C@@H](C)C(=O)N[C@@H](Cc4ccccc4)C(=O)O)c(C)c3cc12 | > 200 µM (inactive) |
| C[C@]12CCC3C(CC=C4C[C@@H](O)CC[C@@]43C)C1CCC2[C@]1(C)CCC(=O)O1 (some centres undefined) | > 200 µM (inactive) |
| CC1(C)Cc2c(sc(/N=C/N3CCCCCC3)c2C#N)C(C)(C)N1 | > 200 µM (inactive) |
| O=C(N/N=C/c1cccc(Br)c1)c1ccc(Br)cc1 | > 200 µM (inactive) |
| COc1ccc(CCNC(=O)c2ccc(S(=O)(=O)N(C)c3ccccc3)cc2)cc1OC | > 200 µM (inactive) |

| Structure (SMILES) | IC50 |
| --- | --- |
| O=C(Nc1ccc(Br)cc1)c1ccc(N2C(=O)C3CC=CCC3C2=O)cc1 (centres undefined) | > 200 µM (inactive) |
| COc1cc(/C=C2/SC(=S)N(Cc3ccccc3)C2=O)cc(Cl)c1O | > 200 µM (inactive) |
| COc1ccc(-c2cnnn2-c2ccc(N)cc2)cc1OC | > 200 µM (inactive) |
| Cc1ccc(C(=O)COc2ccccc2C(=O)Nc2ccccc2)cc1 | > 200 µM (inactive) |
| CC1CCN(S(=O)(=O)c2nnc(NC(=O)c3cccc(Cl)c3)s2)CC1 | > 200 µM (inactive) |
| COCCOC(=O)c1sc(=S)n(CCOC)c1N | 15.3 µM |
| CCOC(=O)c1c(C)[nH]c2c1-c1ccccc1C(=O)C2=O | > 200 µM (inactive) |
| O=C(NCc1c(F)cccc1F)c1cc(COc2c(F)cccc2F)on1 | > 200 µM (inactive) |
| CCOc1ccccc1CNc1ccc(O)cc1 | > 200 µM (inactive) |
| COC(=O)c1cccc(Cn2c(Cl)c(/C=N/NC(=O)c3ccccc3Cl)sc2=O)c1 | > 200 µM (inactive) |
| Cc1ccc(S(=O)(=O)NN=C2C3CC4CC(C3)CC2C4)cc1[N+](=O)[O-] | > 200 µM (inactive) |
| CC(C)(C)c1ccc(C(CC(=O)O)NC(=O)Cc2ccc(F)cc2)cc1 (centres undefined) | > 200 µM (inactive) |
| Nc1c(C(=O)NCc2ccco2)c2nc3ccccc3nc2n1Cc1ccccc1 | > 200 µM (inactive) |
| O=C1C=C(NCc2ccccc2)c2ccccc2C1=O | > 200 µM (inactive) |
| CC1=CC(C)(C)N2C(=O)C(=Nc3ccc(O)cc3)c3cccc1c32 | > 200 µM (inactive) |
| Cc1cc(Cl)ccc1NC(=O)CN1CCC(C(O)(c2ccccc2)c2ccccc2)CC1 | > 200 µM (inactive) |
| CC(C)(C)c1cc(-c2csc(Nc3ccccc3)[n+]2Cc2ccc(C(=O)O)cc2)cc(C(C)(C)C)c1O | > 200 µM (inactive) |
| O=C(CC1Nc2cccc3cccc(c23)NC1=O)Nc1ccccc1 (centres undefined) | > 200 µM (inactive) |
| O=C(Nc1cccc(Oc2ccc(C(=O)O)c(C(=O)O)c2)c1)c1ccc(-c2ccccc2)cc1 | > 200 µM (inactive) |
| Fc1ccc(/C=N/NC(=S)Nc2cccnc2)cc1F | > 200 µM (inactive) |
| CC1(C)OC(C)(C)/C(=C/Nc2ccc(O)cc2)C1=O | > 200 µM (inactive) |
| Cc1c(Cc2ccccc2)c(=O)oc2c(C)c(OCC(=O)N[C@@H](Cc3ccccc3)C(=O)O)ccc12 | > 200 µM (inactive) |
| CC(C)COc1ccc(-c2nn(-c3ccccc3)cc2/C=C2/SC(=S)N(CC(=O)O)C2=O)cc1 | > 200 µM (inactive) |
| COc1cccc2cc(C(=O)N3CCc4ccccc43)c(=O)oc12 | > 200 µM (inactive) |

| Structure (SMILES) | IC50 |
| --- | --- |
| O=C(Nc1ccc(Cl)cc1)c1ccc(S(=O)(=O)N2CCOCC2)cc1 | > 200 µM (inactive) |
| C=CCn1c(NS(=O)(=O)c2ccccc2)c(S(=O)(=O)c2ccc(C)cc2)c2nc3ccccc3nc21 | > 200 µM (inactive) |
| CCC(C)N1C(=O)/C(=C/c2c(NCCCOC(C)C)nc3c(C)cccn3c2=O)SC1=S (centres undefined) | 5.66 µM |
| CCCCN(Cc1cc2cc(OC)ccc2[nH]c1=O)S(=O)(=O)c1ccc(C)cc1 | > 200 µM (inactive) |
| CC1CCCCC1NC(=O)CCS(=O)(=O)c1ccc2c(c1)NC(=O)CO2 (centres undefined) | > 200 µM (inactive) |
| CCC1=Nc2cc(C(=O)O)ccc2Sc2ccccc21 | > 200 µM (inactive) |
| N#CC1C=Cc2ccccc2N1C(=O)c1ccccc1 (centres undefined) | > 200 µM (inactive) |
| COC/C=C/C1=CC2=CC(=O)C(C)(OC(=O)c3ccco3)C(=O)C2=CO1 (centres undefined) | > 200 µM (inactive) |
| Oc1ccc(N=Cc2ccc(OCc3ccccc3)cc2)cc1 | > 200 µM (inactive) |
| O=C(Nc1ccc(Oc2ccsc2C(=O)O)cc1)c1ccccc1F | > 200 µM (inactive) |
| COc1ccc(N=C2NC(=O)S/C2=C\c2ccc(N(C)C)cc2)cc1 | inactive |
| CCCCn1c(NS(=O)(=O)c2ccccc2)c(C(=O)OCC)c2nc3ccccc3nc21 | > 200 µM (inactive) |
| COCCCn1c(N)c(C(=O)NCc2ccco2)c2nc3ccccc3nc21 | > 200 µM (inactive) |
| CCOC(=O)/C(C#N)=c1/s/c(=C2\C=Cc3ccccc3N2CC)c(=O)n1CC | > 200 µM (inactive) |
| Nc1ccc(S(=O)(=O)Nc2ccc(S(N)(=O)=O)cc2)cc1 | > 200 µM (inactive) |
| CCN(CC)CCOC(=O)c1ccc(N/C=C(/C#N)c2nc(-c3cc4ccccc4oc3=O)cs2)cc1 | > 200 µM (inactive) |
| COc1ccc(CCNC(=O)CCC(=O)N2CCOc3ccc(C)cc32)cc1OC | > 200 µM (inactive) |
| Nc1ccc(O)c2c1C(=O)c1ccccc1C2=O | 5.75 µM |
| O=S(=O)(Nc1c(S(=O)(=O)c2ccccc2)c2nc3ccccc3nc2n1C1CCCCC1)c1ccccc1 | > 200 µM (inactive) |
| CCn1c(O)c(C=Nc2ccc(N3CCOCC3)cc2)c(=O)n(CC)c1=S | 13.9 µM |
| O=C1CCCC(O)=C1N=Nc1ccc(C(=O)O)cc1 | > 200 µM (inactive) |
| Cc1ccc(-n2cccn2)c([C@@H]2C[C@H]3CN(C)C(=O)[C@]34CCCN24)c1 | > 200 µM (inactive) |
